For 37 compounds, IC50 results are on record in the Kinase Knowledgebase extract (Sharma et al. 2016).

The structures appear in SMILES notation. Bounds are passed on as bounds.

The target of this assay is ROCK2 (human) (UniProt O75116). Nature of the assay: Inhibition of ROCK2 Kinase Activity.

The term IC50 denotes the concentration at which inhibition is half-maximal.

Sequence of ROCK2 (human) (O75116 whole entry, looked up): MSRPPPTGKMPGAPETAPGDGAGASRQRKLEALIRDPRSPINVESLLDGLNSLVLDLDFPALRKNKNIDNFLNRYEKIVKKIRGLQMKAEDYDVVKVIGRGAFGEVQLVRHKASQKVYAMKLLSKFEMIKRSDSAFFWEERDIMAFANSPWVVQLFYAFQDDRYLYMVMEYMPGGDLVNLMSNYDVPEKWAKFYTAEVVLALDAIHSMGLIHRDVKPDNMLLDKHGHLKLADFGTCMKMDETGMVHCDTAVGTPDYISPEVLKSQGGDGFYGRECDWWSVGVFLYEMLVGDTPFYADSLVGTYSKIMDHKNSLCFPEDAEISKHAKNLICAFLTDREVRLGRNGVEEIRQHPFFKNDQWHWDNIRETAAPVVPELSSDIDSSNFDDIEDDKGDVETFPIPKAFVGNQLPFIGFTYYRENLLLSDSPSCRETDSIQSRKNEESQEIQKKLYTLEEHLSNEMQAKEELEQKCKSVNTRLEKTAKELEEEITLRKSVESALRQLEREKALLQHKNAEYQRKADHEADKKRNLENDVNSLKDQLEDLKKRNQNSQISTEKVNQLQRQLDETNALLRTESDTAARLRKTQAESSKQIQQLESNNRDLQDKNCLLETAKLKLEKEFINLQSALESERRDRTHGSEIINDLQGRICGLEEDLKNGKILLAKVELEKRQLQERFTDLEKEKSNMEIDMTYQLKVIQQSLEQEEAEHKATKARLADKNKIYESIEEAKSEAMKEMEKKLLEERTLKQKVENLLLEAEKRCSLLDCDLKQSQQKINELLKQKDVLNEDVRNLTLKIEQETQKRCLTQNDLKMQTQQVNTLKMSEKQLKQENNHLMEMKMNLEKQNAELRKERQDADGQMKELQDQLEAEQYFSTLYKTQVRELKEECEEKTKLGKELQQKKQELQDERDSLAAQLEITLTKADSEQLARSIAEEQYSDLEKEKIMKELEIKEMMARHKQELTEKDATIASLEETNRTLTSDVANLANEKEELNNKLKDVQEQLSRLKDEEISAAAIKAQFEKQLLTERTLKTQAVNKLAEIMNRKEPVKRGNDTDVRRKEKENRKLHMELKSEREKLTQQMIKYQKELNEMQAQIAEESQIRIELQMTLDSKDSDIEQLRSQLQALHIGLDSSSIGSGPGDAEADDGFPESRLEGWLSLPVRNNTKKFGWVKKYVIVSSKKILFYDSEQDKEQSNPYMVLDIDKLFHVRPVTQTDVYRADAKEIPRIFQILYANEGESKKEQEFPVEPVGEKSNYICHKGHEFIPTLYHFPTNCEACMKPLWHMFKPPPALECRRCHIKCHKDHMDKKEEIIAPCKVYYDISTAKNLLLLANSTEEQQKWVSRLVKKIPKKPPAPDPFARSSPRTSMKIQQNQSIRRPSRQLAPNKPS

Consider `O=S(=O)(NCc1nc(-c2ccncc2)n[nH]1)c1ccc(OCc2ccccc2)cc1`, for which the IC50 was over 5 µM.
On to `O=C(NCc1nc(-c2ccncc2)n[nH]1)c1cccc(Cl)c1[N+](=O)[O-]`, for which the half-maximal inhibitory concentration (IC50) was at most 5 µM.
`O=C(C=Cc1ccc(Cl)cc1)NCc1nc(-c2ccncc2)n[nH]1` returned an IC50 of over 5 µM.
As for `CC(C)C(C(=O)NCc1nc(-c2c[nH]c3ncccc23)n[nH]1)N(C)C(=O)OC(C)(C)C` (configuration not stated), the figure is over 5 µM; as for `O=C(NCc1nc(-c2c[nH]c3ncccc23)n[nH]1)c1ccncc1Cl`, over 5 µM.
As for `COc1cc(C(=O)NCc2nc(-c3c[nH]c4ncccc34)n[nH]2)cc(OC)c1O`, the figure is over 5 µM; as for `COc1ccc(O)c(C(=O)NCc2nc(-c3ccncc3)n[nH]2)c1`, at most 5 µM.
With `O=C(NCc1nc(-c2c[nH]c3ncccc23)n[nH]1)c1ccc(Cl)c([N+](=O)[O-])c1`, the 50% inhibitory concentration (IC50) is over 5 µM.
In turn, `O=C(CC1Cc2ccccc2C1)NCc1nc(-c2c[nH]c3ncccc23)n[nH]1` returned an IC50 of over 5 µM.
In turn, `O=C(NCc1nc(-c2ccncc2)n[nH]1)C1CCc2ccccc21` (configuration not stated) gave a concentration for half-maximal inhibition (IC50) of over 5 µM.
As for `CC(C)(C)c1ccc(C(=O)NCc2nc(-c3ccncc3)n[nH]2)cc1`, the figure is over 5 µM; as for `O=C(NCc1nc(-c2ccncc2)n[nH]1)c1cccc2c1OCC2`, over 5 µM.
In the case of `O=C(NCc1nc(-c2c[nH]c3ncccc23)n[nH]1)c1cccc(I)c1`, the IC50 is over 5 µM.
`CC(=O)c1ccc(C(=O)NCc2nc(-c3ccncc3)n[nH]2)cc1` had an IC50 of at most 5 µM.
In turn, `O=C(C=Cc1ccc2c(c1)OCO2)NCc1nc(-c2c[nH]c3ncccc23)n[nH]1` came in with an IC50 of over 5 µM.
To `Cc1ccc(C(=O)NCc2nc(-c3c[nH]c4ncccc34)n[nH]2)cc1` belongs over 5 µM; to `O=C(NCc1nc(-c2c[nH]c3ncccc23)n[nH]1)c1c(Cl)cc(Cl)cc1Cl`, over 5 µM.
As to `CC(=O)c1ccccc1C(=O)NCc1nc(-c2ccncc2)n[nH]1`, the concentration for half-maximal inhibition (IC50) is over 5 µM.
Consider `O=C(NCc1nc(-c2c[nH]c3ncccc23)n[nH]1)c1ccc(Oc2cccc(O)c2)cc1`, for which the IC50 is over 5 µM.
Take `O=C(CCc1ccccc1O)NCc1nc(-c2c[nH]c3ncccc23)n[nH]1`: the IC50 is over 5 µM.
As for `O=C(NCc1nc(-c2c[nH]c3ncccc23)n[nH]1)c1ccc(F)cc1Cl`, the figure is over 5 µM.
`Cc1ccc(C(=O)NCc2nc(-c3ccncc3)n[nH]2)c(O)c1`: the concentration for half-maximal inhibition (IC50) is at most 5 µM.
Take `CC(C)(C)OC(=O)NC(Cc1ccc(O)cc1)C(=O)NCc1nc(-c2ccncc2)n[nH]1` (configuration not stated): the IC50 was over 5 µM.
`Cc1nc(Br)sc1C(=O)NCc1nc(-c2c[nH]c3ncccc23)n[nH]1` yielded an IC50 of over 5 µM.
For the compound `CC(C)c1cccc(C(=O)NCc2nc(-c3ccncc3)n[nH]2)c1O`, the IC50 was at most 5 µM.
As for `O=C(NCc1nc(-c2ccncc2)n[nH]1)c1cc(Cl)ccc1Cl`, the figure is over 5 µM.
As for `O=C(Cc1c(F)cccc1F)NCc1nc(-c2c[nH]c3ncccc23)n[nH]1`, the figure is over 5 µM.
Regarding `O=C(C=Cc1ccc2c(c1)OCO2)NCc1nc(-c2ccncc2)n[nH]1`, the IC50 is over 5 µM.
To `O=C(NCc1nc(-c2c[nH]c3ncccc23)n[nH]1)c1cc(F)c(Cl)cc1F` belongs over 5 µM; to `COc1cc(Cl)ccc1C(=O)NCc1nc(-c2c[nH]c3ncccc23)n[nH]1`, over 5 µM.
As for `O=C(NCc1nc(-c2c[nH]c3ncccc23)n[nH]1)c1cscn1`, the IC50 is over 5 µM.
`CC(=O)c1ccccc1C(=O)NCc1nc(-c2c[nH]c3ncccc23)n[nH]1` registered an IC50 of over 5 µM.
Consider `O=C(NCc1nc(-c2c[nH]c3ncccc23)n[nH]1)c1cccc(Br)n1`, for which the IC50 is over 5 µM.
For the compound `CC(=O)c1ccc(C(=O)NCc2nc(-c3c[nH]c4ncccc34)n[nH]2)cc1`, the IC50 is at most 5 µM.
`Cc1ccccc1CCC(=O)NCc1nc(-c2c[nH]c3ncccc23)n[nH]1` registered an IC50 of over 5 µM.
For the compound `O=C(NCc1nc(-c2ccncc2)n[nH]1)c1cc(O)c(O)c(O)c1`, the 50% inhibitory concentration (IC50) is over 5 µM.
To `O=C(NCc1nc(-c2ccncc2)n[nH]1)c1ccc(F)cc1` belongs over 5 µM.
